One substance from patent US20240299542A1, “NATURAL KILLER CELLS ENGINEERED TO REDUCE OR ELIMINATE CBL-B AND USES THEREOF” (City of Hope, priority 2021, published 2024) can be followed below.

Common to all, as to format: cell-based, human
The subject of data set [1] is Molm-13, MV4-11 or EOL-1 leukemia cell lines. How it is done:
(§1) FIGS. 3A-3E depict the results of a study showing that downregulation of Cbl-b enhances the cytotoxicity of primary human NK cells. (FIGS. 3A and 3B) Primary human NK cells transduced with Cbl-b siRNA or Scr siRNA for 24 h were stimulated without (FIG. 3A) or with (FIG. 3B) a low concentration of IL-15 (2 ng/ml) for 16 h, then co-cultured with ^51Cr labeled Molm-13, MV4-11 or EOL-1 leukemia cell lines for 4 h, followed by quantification of specific tumor cell lysis. Each experiment was repeated with 6 different normal donors. (FIG. 3C) qRT-PCR was performed to quantify the granzyme B (GZMB) mRNA levels (n=8 donors) in siRNA- and Scr siRNA-transduced primary human NK cells incubated without or with IL-15 (10 ng/ml) for 16 h. (FIG. 3D) The concentration of the granzyme B protein in the supernatants of Cbl-b siRNA- and Scr siRNA-transduced primary human NK cells incubated without (688.1 pg/ml vs 525.4 pg/ml; P=0.0232) or with IL-15 (10 ng/ml) for 24 h (8789 pg/ml vs 3397 pg/ml; P=0.0232) was measured by ELISA (n=8 donors). (FIG. 3E) The level of granzyme B protein in Cbl-b siRNA- and Scr siRNA-transduced primary human NK cells incubated without or with IL-15 (10 ng/ml) for 24 h was measured by immunoblot analysis. The data are representative of three experiments. Scr-scrambled; *P<0.05, **P<0.01, ***P<0.001, ****P<0.0001 by One-way or Two-way ANOVA; ns, not significant. […]

Another data set has as its system granzyme B. The data set is described as follows: Granzyme B protein by immunoblot in siRNA-transduced NK cells. The settings on record: without or with IL-15 (10 ng/ml) 24 h. How it is done: as §1, with “analysis.” for “analysis. The data are representative of three experiments. Scr-scrambled; *P<0.05, **P<0.01, ***P<0.001, ****P<0.0001 by One-way or Two-way ANOVA; ns, not significant.”
Immunoblotting. […] Densitometric analysis was performed to quantify intensity of gel bands with Image J (National Institutes of Health). […]

In a further data set the test system is IFN-γ. The experiment in a line: Intracellular IFN-γ flow cytometry of siRNA-transduced NK cells. How it is done:
FIGS. 4A-4D depict the results of a study showing that downregulation of Cbl-b increases IFN-γ secretion in IL-15-activated primary human NK cells. (FIG. 4A) RNAseq was conducted using primary human NK cells transduced with either Cbl-b siRNA or Scr siRNA without or with incubation in IL-15 (10 ng/ml) for 16 h (4 donors for each group). […] (FIG. 4B) qRT-PCR was performed to quantify the mRNA levels of IFN-γ (n=6 donors) after IL-15 (10 ng/ml) 6 h stimulation. (FIG. 4C) The percentage of intracellular IFN-γ+ cells in un-transduced NK cells or those transduced with Cbl-b siRNA or Scr siRNA, each activated with IL-15 (10 ng/ml) for 24 h (11.5% vs 4.338%; P=0.0008; n=5 donors). (FIG. 4D) Supernatants were collected after IL-15 (10 ng/ml) for 24 h and IFN-γ concentrations measured by ELISA (18115 pg/ml vs 882.5 pg/ml; P=0.0099; n=7 donors). Scr-scrambled; *P<0.05, **P<0.01, ***P<0.001 by Student's two-tailed paired t-test or One-way ANOVA; ns, not significant. Data presented as mean±SEM.
FIGS. 9B-9D show intracellular flow cytometric analysis of CD56+ primary human NK cells transduced with Scr siRNA or transduced with Cbl-b siRNA, incubated with IL-18 (10 ng/ml), IL-12 (10 ng/ml) or IL-18 (10 ng/ml) plus IL-12 (10 ng/ml) for 24 h. Scr, scrambled; *P<0.05, ns, not significant. Data are presented as mean±SEM.
Flow cytometry. To determine protein cell surface expression via flow cytometry, cells were stained with monoclonal antibodies at room temperature for 20 minutes and washed with FACS buffer prior to analysis using a Fortessa X-20 flow cytometer (BD Biosciences). For IFN-γ intracellular flow cytometric analysis, […] GolgiPlug (BD Biosciences) was added for 4 h before cell harvest; cells were then permeabilized and fixed using a Cytofix/Cytoperm Fixation/Permeabilization Solution Kit (BD Biosciences), followed by analysis with a Fortessa X-20 flow cytometer. Intracellular flow cytometric analysis of Mertk was performed similarly except that GolgiPlug was not added. Data was analyzed by using Flowjo V10 software (Tree Star, Ashland, OR, USA).
To further explore how Cbl-b regulates the functions of primary human NK cells, we performed RNA-seq analyses using enriched primary NK cells from healthy donors transduced with Cbl-b siRNA or Scr siRNA without or with IL-15 treatment for 16 h (n=4 in each group). […] The intracellular results were supported by assessment IFN-γ secretion into the supernatant, in that IL-15-activated primary human NK cells transduced with Cbl-b siRNA expressed 10-fold higher levels of IFN-γ compared to NK cells transduced with Scr siRNA (FIG. 4D).
(In general: Flow cytometry measures light scatter and fluorescence of single cells or particles in a stream.)

On to “Cbl-b siRNA: Cbl-b-specific Accell siRNA (Dharmacon), SEQ ID NO:1, CCUUCAUGUUCAGAUGGUU (Accell modified siRNA, pattern not given here)”, for which the “cytotoxicity (specific lysis) without IL-15” value in data set [1] is “significant increase in cytotoxicity against three of the four AML cell lines”. Besides, the “total GZMB protein” value with granzyme B is reported as “increase of total GZMB protein”. The “percentage of IFN-γ+ fraction relative to Scr siRNA” value is given as “no significant difference” with IFN-γ (IL-12 (10 ng/ml) or IL-12 plus IL-18 (10 ng/ml each) 24 h) and 2.5 fold in the data set with IFN-γ (IL-18 (10 ng/ml) 24 h). In the data set with IFN-γ (IL-15 (10 ng/ml) 24 h, n=5 donors), the “percentage of intracellular IFN-γ+ cells” value stood at 11.5%. Also, in the data set on IFN-γ (IL-15-activated), the “intracellular IFN-γ level relative to Scr siRNA” value is 2.5 fold.
